Target: T1, USP25 (USP25-His6, Boston Biochem E-546) (Homo sapiens, UniProt Q9UHP3)
T1 construct: His6 (C); purchased Boston Biochem E-546
T1 sequence (Q9UHP3 1-1055): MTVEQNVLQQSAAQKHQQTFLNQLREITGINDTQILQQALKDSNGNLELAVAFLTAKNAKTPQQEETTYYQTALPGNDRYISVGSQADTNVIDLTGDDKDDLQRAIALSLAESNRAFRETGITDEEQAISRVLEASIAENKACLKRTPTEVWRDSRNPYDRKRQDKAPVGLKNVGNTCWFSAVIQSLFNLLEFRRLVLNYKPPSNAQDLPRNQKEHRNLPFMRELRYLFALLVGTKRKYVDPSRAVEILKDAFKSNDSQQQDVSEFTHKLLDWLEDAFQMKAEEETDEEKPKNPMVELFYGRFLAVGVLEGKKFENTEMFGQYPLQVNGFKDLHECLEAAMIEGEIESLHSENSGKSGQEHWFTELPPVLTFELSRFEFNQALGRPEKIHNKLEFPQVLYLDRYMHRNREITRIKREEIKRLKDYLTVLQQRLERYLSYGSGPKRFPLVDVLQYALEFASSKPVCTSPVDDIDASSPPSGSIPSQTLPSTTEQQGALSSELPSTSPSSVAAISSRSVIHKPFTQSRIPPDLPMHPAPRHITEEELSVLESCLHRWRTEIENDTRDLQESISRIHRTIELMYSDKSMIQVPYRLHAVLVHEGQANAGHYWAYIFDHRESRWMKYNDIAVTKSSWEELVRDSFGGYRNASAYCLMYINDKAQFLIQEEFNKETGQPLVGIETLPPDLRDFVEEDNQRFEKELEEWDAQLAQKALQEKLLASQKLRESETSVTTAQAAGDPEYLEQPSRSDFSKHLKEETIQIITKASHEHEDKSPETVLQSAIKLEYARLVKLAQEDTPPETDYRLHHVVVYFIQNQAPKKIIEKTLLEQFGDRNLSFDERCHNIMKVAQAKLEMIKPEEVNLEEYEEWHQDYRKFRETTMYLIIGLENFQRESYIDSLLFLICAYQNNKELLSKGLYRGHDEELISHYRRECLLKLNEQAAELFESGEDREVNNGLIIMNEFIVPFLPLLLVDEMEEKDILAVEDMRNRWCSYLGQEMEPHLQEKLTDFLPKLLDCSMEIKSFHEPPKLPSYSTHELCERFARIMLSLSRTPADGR
Experiment: Ubiquitin-Rhodamine 110 Assay for USP25 Activity, Example A-3
Assay type: biochemical
Conditions: Ubiquitin-Rhodamine 110 assay, Example A-3; IC50 ranges; read-out: USP25 A-3 IC50
Description: Example A-3: Biochemical Assay: Ubiquitin-Rhodamine 110 Assay for USP25 Activity
The assay was performed in a final volume of 9 μL in assay buffer containing 20 mM Tris-HCl (pH 8.0, (1M Tris-HCl, pH 8.0 solution; Corning 46-031-CM)), 3 mM BME (2-Mercaptoethanol; Sigma 63689-25ML-F), 0.03% BGG (0.22 μM filtered, Sigma, G7516-25G), and 0.01% Triton X-100 (Sigma, T9284-10L). Nanoliter quantities of 10-point, 3-fold serial dilution in DMSO was pre-dispensed into 1536 assay plates (Corning, #3724BC) for a final test concentration of 25 μM to 1.3 nM, top to lowest dose, respectively. Enzyme USP25, construct USP25-His6, (Boston Biochem E-546). Concentration and incubation times were optimized for the maximal signal-to-background while maintaining initial velocity conditions at a fixed substrate concentration. The final concentration of the enzyme in the assay was […]. Final substrate (Ub-Rh110; Ubiquitin-Rhodamine 110, R&D Systems #U-555) concentration was 25 nM with [Ub-Rh110]<<Km. 3 μL of 2× enzyme was added to assay plates (pre-stamped with compound) preincubated with […] for 30 minutes and then 3 μL of 2× Ub-Rh110 was added to assay plates. Plates were incubated for 45 minutes at room temperature before addition of 3 μL of stop solution (final concentration of 10 mM citric acid (Sigma, 251275-500G)). Fluorescence was read on the Envision (Excitation at 485 nm and Emission at 535 nm; Perkin Elmer) or on the PheraSTAR (Excitation at 485 nm and Emission at 535 nm; BMG Labtech).
For assay formats Example A-1(a), A-1(b), and A-2, data were reported as percent inhibition compared with control wells based on the following equation: % inh=1−((FLU−AveLow)/(AveHigh−AveLow)) where FLU=measured Fluorescence, AveLow=average Fluorescence of no enzyme control (n=16), and AveHighh=average Fluorescence of DMSO control (n=16). IC50 values were determined by curve fitting of the standard 4 parameter logistic fitting algorithm included in the Activity Base software package: IDBS XE Designer Model 205. Data is fitted using the Levenburg Marquardt algorithm.

Row | SMILES | IC50
1 | Cc1ccc2c(N)c(C(=O)N[C@H]3COc4cc(N5CC[C@@H]6CCC(N)C[C@@H]65)ccc4C3)sc2n1 (stereo in doubt) [Example 234, N-[(3R)-7-[(3aS,6S,7aS)-6-amino-octahydro-1H-indol-1-yl]-3,4-dihydro-2H-1-benzopyran-3-yl]-3-amino-6-methylthieno[2,3-b]pyridine-2-carboxamide] | 50 to 200 nM
2 | Cc1cc(C)c2c(N)c(C(=O)N[C@H]3COc4cc(N5CC6CCC(C5)N6)c(C#N)c(F)c4C3)sc2n1 [Example 241, 3-amino-N-[(3R)-6-cyano-7-{3,8-diazabicyclo[3.2.1]octan-3-yl}-5-fluoro-3,4-dihydro-2H-1-benzopyran-3-yl]-4,6-dimethylthieno[2,3-b]pyridine-2-carboxamide] | 50 to 200 nM

Same assay, conditions: Ubiquitin-Rhodamine 110 assay, Example A-3; read-out: USP25 A-3 IC50 range

Row | SMILES | IC50
3 | Cc1ccc2c(N)c(C(=O)N[C@H]3CCc4nc(N5C[C@@H](N)[C@@]6(CCOC6)C5)ccc4C3)sc2n1 (single isomer, unassigned) [Example 431] | > 2000 nM
4 | Cc1cnc2c(N)c(C(=O)N[C@H]3CCc4cc(N5CC(C(=O)O)C5)ccc4C3)sc2n1 [Example 6-4, (S)-1-(6-(7-amino-3-methylthieno[2,3-b]pyrazine-6-carboxamido)-5,6,7,8-tetrahydronaphthalen-2-yl)azetidine-3-carboxylic acid] | 200 to 2000 nM
5 | Cc1ccc2c(N)c(C(=O)N[C@@H]3COc4cc(N5C[C@@H]6CNC[C@H]6C5)ccc4C3)sc2n1 [Example 42, 3-amino-N-((S)-7-((3aS,6aS)-hexahydropyrrolo[3,4-c]pyrrol-2(1H)-yl)chroman-3-yl)-6-methylthieno[2,3-b]pyridine-2-carboxamide] | 200 to 2000 nM
6 | Cc1ccc2c(N)c(C(=O)N[C@H]3COc4cc(N5CC6CCC(C5)N6)c(F)cc4C3)sc2n1 [Example 104, 3-amino-N-[(3R)-7-{3,8-diazabicyclo[3.2.1]octan-3-yl}-6-fluoro-3,4-dihydro-2H-1-benzopyran-3-yl]-6-methylthieno[2,3-b]pyridine-2-carboxamide] | 50 to 200 nM
7 | COC[C@@H]1CN(c2ccc3c(n2)OC[C@H](NC(=O)c2sc4nc(C)cc(C)c4c2N)C3)C[C@@H]1N [Example 348, 3-amino-N-[(3R)-7-[(3R,4R)-3-amino-4-(methoxymethyl)pyrrolidin-1-yl]-2H,3H,4H-pyrano[2,3-b]pyridin-3-yl]-4,6-dimethylthieno[2,3-b]pyridine-2-carboxamide] | > 2000 nM
8 | Cc1ccc2c(N)c(C(=O)N[C@H]3CCc4nc(N5C[C@@H](N)[C@H](C(F)(F)F)C5)ccc4C3)sc2n1 [Example 364, 3-amino-N-[(6S)-2-[(3S,4R)-3-amino-4-(trifluoromethyl)pyrrolidin-1-yl]-5,6,7,8-tetrahydroquinolin-6-yl]-6-methylthieno[2,3-b]pyridine-2-carboxamide] | > 2000 nM
9 | Cc1ccc2c(N)c(C(=O)N[C@H]3CCc4nc(N5C[C@@H]6CCN[C@H](C5)C6(F)F)ccc4C3)sc2n1 [Example 367, 3-amino-N-[(6S)-2-[(1R,5S)-9,9-difluoro-2,7-diazabicyclo[3.3.1]nonan-7-yl]-5,6,7,8-tetrahydroquinolin-6-yl]-6-methylthieno[2,3-b]pyridine-2-carboxamide] | 50 to 200 nM
10 | Cc1ccc2c(N)c(C(=O)N[C@H]3CCc4nc(N5C[C@H]6CCN[C@@H](C5)C6(F)F)ccc4C3)sc2n1 [Example 368, 3-amino-N-[(6S)-2-[(1S,5R)-9,9-difluoro-2,7-diazabicyclo[3.3.1]nonan-7-yl]-5,6,7,8-tetrahydroquinolin-6-yl]-6-methylthieno[2,3-b]pyridine-2-carboxamide] | 50 to 200 nM
11 | CCn1ccc2cc(C(=O)N[C@H]3CCc4nc(N5C[C@H](C(F)F)[C@@H](N)C5)ccc4C3)cnc21 [Example 370, N-[(6S)-2-[(3R,4S)-3-amino-4-(difluoromethyl)pyrrolidin-1-yl]-5,6,7,8-tetrahydroquinolin-6-yl]-1-ethyl-1H-pyrrolo[2,3-b]pyridine-5-carboxamide] | 200 to 2000 nM
12 | CCn1ccc2cc(C(=O)N[C@H]3CCc4nc(N5C[C@@H](N)[C@H](C(F)F)C5)ccc4C3)cnc21 [Example 371, N-[(6S)-2-[(3S,4R)-3-amino-4-(difluoromethyl)pyrrolidin-1-yl]-5,6,7,8-tetrahydroquinolin-6-yl]-1-ethyl-1H-pyrrolo[2,3-b]pyridine-5-carboxamide] | > 2000 nM
13 | CC(=O)N[C@@H]1CN(c2ccc3c(n2)CC[C@H](NC(=O)c2sc4nc(C)ccc4c2N)C3)C[C@H]1C(F)F [Example 372, 3-amino-N-[(6S)-2-[(3R,4S)-3-(difluoromethyl)-4-acetamidopyrrolidin-1-yl]-5,6,7,8-tetrahydroquinolin-6-yl]-6-methylthieno[2,3-b]pyridine-2-carboxamide] | > 2000 nM
14 | Cc1ccc2c(N)c(C(=O)N[C@H]3CCc4nc(N5CCN[C@H](C(F)F)C5)ccc4C3)sc2n1 [Example 374, 3-amino-N-[(6S)-2-[(3S)-3-(difluoromethyl)piperazin-1-yl]-5,6,7,8-tetrahydroquinolin-6-yl]-6-methylthieno[2,3-b]pyridine-2-carboxamide] | > 2000 nM
15 | Cc1ccc2c(N)c(C(=O)N[C@H]3CCc4nc(N5CCN[C@@H](C(F)F)C5)ccc4C3)sc2n1 [Example 375, 3-amino-N-[(6S)-2-[(3R)-3-(difluoromethyl)piperazin-1-yl]-5,6,7,8-tetrahydroquinolin-6-yl]-6-methylthieno[2,3-b]pyridine-2-carboxamide] | > 2000 nM
16 | CN[C@H]1CN(c2ccc3c(n2)CC[C@H](NC(=O)c2sc4nc(C)ccc4c2N)C3)C[C@@H]1C(F)F [Example 376, 3-amino-N-[(6S)-2-[(3S,4R)-3-(difluoromethyl)-4-(methylamino)pyrrolidin-1-yl]-5,6,7,8-tetrahydroquinolin-6-yl]-6-methylthieno[2,3-b]pyridine-2-carboxamide] | > 2000 nM
17 | CN[C@@H]1CN(c2ccc3c(n2)CC[C@H](NC(=O)c2sc4nc(C)ccc4c2N)C3)C[C@H]1C(F)F [Example 377, 3-amino-N-[(6S)-2-[(3R,4S)-3-(difluoromethyl)-4-(methylamino)pyrrolidin-1-yl]-5,6,7,8-tetrahydroquinolin-6-yl]-6-methylthieno[2,3-b]pyridine-2-carboxamide] | > 2000 nM
18 | Cc1ccc2c(N)c(C(=O)N[C@H]3CCc4nc(N5C[C@H](C(F)F)[C@@H](N)C5)ncc4C3)sc2n1 [Example 380, 3-amino-N-[(6S)-2-[(3R,4S)-3-amino-4-(difluoromethyl)pyrrolidin-1-yl]-5,6,7,8-tetrahydroquinazolin-6-yl]-6-methylthieno[2,3-b]pyridine-2-carboxamide] | > 2000 nM

Same assay, conditions: biochemical IC50 range, Ubiquitin-Rhodamine 110 assay, Example A-3; read-out: USP25 A-3

Row | SMILES | IC50
19 | Cc1ccc2c(N)c(C(=O)N[C@H]3COc4cc(N5CCNCC5)cc(F)c4C3)oc2n1 [Example 169, 3-amino-N-[(3R)-5-fluoro-7-(piperazin-1-yl)-3,4-dihydro-2H-1-benzopyran-3-yl]-6-methylfuro[2,3-b]pyridine-2-carboxamide] | > 2000 nM

From patent US12162888B2, “Carboxamides as ubiquitin-specific protease inhibitors” (Valo Early Discovery, Inc., priority 2018, dated 2024)
